Results reported in article PMC7503713, “GANT61 Reduces Hedgehog Molecule (GLI1) Expression and Promotes Apoptosis in Metastatic Oral Squamous Cell Carcinoma Cells” (International Journal of Molecular Sciences, 2020).

Key:
Assay type in all cases: cell-based, human
HL60 = experiment: alamarBlue cytotoxicity assay, HL60; details: Homo sapiens, HL-60, 72 h of incubation
Experimental: (§1) To assess the cytotoxicity of the GLI inhibitor GANT61 (Sigma-Aldrich, St. Louis, MO, USA) in tumor and non-tumor cell lines, an alamarBlue assay (Sigma-Aldrich Chemical Co, St. Louis, MO, USA) was performed after 72 h of exposure to the inhibitor, as described by Ahmed et al., 1994 [46]. Cells were distributed on 96-well plates at a density of 7 × 10^4 cells/mL for adhered cells, and 3 × 10^5 cells/mL for cells in suspension. All tested compounds were dissolved in DMSO, added to wells containing 100 µL of cells in complete medium, and then incubated for 72 h. Eight concentrations of GANT61 (0.19 to 50 µg/mL), Doxorubicin (Laboratory IMA S.A.I.C., Buenos Aires, Argentina), and 5-Fluorouracil (5-FU, Sigma-Aldrich, St. Louis, MO, USA), both used as positive controls at concentrations ranging from 0.03 to 5 µg/mL, were added to respective wells. […] Absorbance was measured at 570 nm (reduced) and 595 nm (oxidized) wavelengths, using a Spectramax 190 plate reader (Molecular Devices; Sunnyvale, CA, USA).
(§2) Statistical analyses were performed, using GraphPad Prism v. […] Data were analyzed according to distribution along the normal Gaussian curve. […] Differences between groups resulting from in vitro assays were evaluated by ANOVA (analysis of variance) testing, followed by the Student–Newman–Keuls test. […]

HepG2 = experiment: alamarBlue cytotoxicity assay, HepG2; details: Homo sapiens, 72 h of incubation
Experimental: (§3) To assess the cytotoxicity of the GLI inhibitor GANT61 (Sigma-Aldrich, St. Louis, MO, USA) in tumor and non-tumor cell lines, an alamarBlue assay (Sigma-Aldrich Chemical Co, St. Louis, MO, USA) was performed after 72 h of exposure to the inhibitor, as described by Ahmed et al., 1994 [46]. Cells were distributed on 96-well plates at a density of 7 × 10^4 cells/mL for adhered cells, and 3 × 10^5 cells/mL for cells in suspension. All tested compounds were dissolved in DMSO, added to wells containing 100 µL of cells in complete medium, and then incubated for 72 h. Eight concentrations of GANT61 (0.19 to 50 µg/mL), Doxorubicin (Laboratory IMA S.A.I.C., Buenos Aires, Argentina), and 5-Fluorouracil (5-FU, Sigma-Aldrich, St. Louis, MO, USA), both used as positive controls at concentrations ranging from 0.03 to 5 µg/mL, were added to respective wells. Cells treated with the vehicle (0.5% DMSO) used to dilute the tested compounds were used as negative controls. Before the end of the incubation period (4 h for cell lines and 24 h for PBMCs), 20 µL of alamarBlue stock solution (resazurin, Sigma-Aldrich, St. Louis, MO, USA) was added to each well. Absorbance was measured at 570 nm (reduced) and 595 nm (oxidized) wavelengths, using a Spectramax 190 plate reader (Molecular Devices; Sunnyvale, CA, USA).
(§4) Statistical analyses were performed, using GraphPad Prism v. 6.03 (GraphPad Software, Inc., San Diego, USA). Data were analyzed according to distribution along the normal Gaussian curve. IC50 values were obtained through non-linear regression, using results from three independent experiments carried out in duplicate. Differences between groups resulting from in vitro assays were evaluated by ANOVA (analysis of variance) testing, followed by the Student–Newman–Keuls test. This study considered a level of significance, corresponding to alpha (α) or “p” value, when results were less than or equal to 5%.

SCC15 = experiment: alamarBlue cytotoxicity assay, SCC15; details: Homo sapiens, SCC-15, 72 h of incubation
Experimental: as §1, §2

HCT-116 = experiment: alamarBlue cytotoxicity assay, HCT-116; details: Homo sapiens; HCT-116, alamarBlue, 72 h of incubation
Experimental: as §3, §4

PBMC = experiment: alamarBlue cytotoxicity assay, PBMC; details: Homo sapiens, 72 h of incubation
Experimental: Human peripheral blood mononuclear cells (PBMC) lymphocytes and monocytes) were obtained from the peripheral blood of healthy, non-smoking volunteers aged 25–35 years. None of the volunteers had used any type of drug or medication for at least 15 days prior to collection. Blood collection (5 mL) was performed in heparinized vials by trained professionals at the Laboratory of Tissue Engineering and Immunopharmacology (LETI, IGM-FIOCRUZ, Salvador, Brazil), using sterile disposable syringes. PBMCs were isolated by a standard protocol described by Dias et al. (2018). The institutional review board of the Gonçalo Moniz Institution, Oswaldo Cruz Foundation (IGM-FIOCRUZ), in Salvador, Bahia, Brazil, approved all experimental protocols (No.031019/2013). All participants provided written informed consent prior to participation in the study.
as §1, with “h.” for “h. Eight concentrations of GANT61 (0.19 to 50 µg/mL), Doxorubicin (Laboratory IMA S.A.I.C., Buenos Aires, Argentina), and 5-Fluorouracil (5-FU, Sigma-Aldrich, St. Louis, MO, USA), both used as positive controls at concentrations ranging from 0.03 to 5 µg/mL, were added to respective wells.”
as §2

K562 = experiment: alamarBlue cytotoxicity assay, K562; details: Homo sapiens, 72 h of incubation
Experimental: as §3, §4

HSC3 = experiment: alamarBlue cytotoxicity assay, HSC3; details: Homo sapiens, HSC-3, 72 h of incubation
Experimental: For cytotoxicity assessments, this study primarily focused on the highly metastatic HSC3 OSCC cell line (JCRB Cell Bank, Osaka, Japan) and employed other histological tumor cell types and non-tumor cells (Supplementary Table S1). HSC3 cells were placed in flasks ([…], 250 mL volume) containing DMEM medium (Gibco, Lif Technologies, Gaithesburg, MD, USA) supplemented with 10% fetal bovine serum (FBS, Gibco, Life Technologies, Gaithesburg, MD, USA) 1% penicillin, 1% streptomycin (Gibco, Life Technologies, Gaithesburg, MD, USA), and 0.8% hydrocortisone (Sigma-Aldrich, St. Louis, MO, USA). Cells were cultured and kept in incubators, under an atmosphere of 5% CO2 at 37 °C. Trypsinization was used to dissociate cells when cell growth reached the necessary confluence, i.e., 70 to 80% of the total culture flask volume. Cell cultures were tested periodically for mycoplasma contamination and evaluated by using a luminometer, according to the MycoAlert^TM PLUS protocol (Lonza, Walkersville Inc., Walkersville, MD, USA, 2012).
as §3
Statistical analyses were performed, using GraphPad Prism v. 6.03 (GraphPad Software, Inc., San Diego, USA). Data were analyzed according to distribution along the normal Gaussian curve. […] Differences between groups resulting from in vitro assays were evaluated by ANOVA (analysis of variance) testing, followed by the Student–Newman–Keuls test. […]

SCC4 = experiment: alamarBlue cytotoxicity assay, SCC4; details: Homo sapiens, SCC-4, 72 h of incubation
Experimental: as §1, §2

APC03 = experiment: alamarBlue cytotoxicity assay, APC03; details: Homo sapiens, 72 h of incubation
Experimental: as §1, §2

CAL27 = experiment: alamarBlue cytotoxicity assay, CAL27; details: Homo sapiens, CAL-27, 72 h of incubation
Experimental: as §3, §4

APC02 = experiment: alamarBlue cytotoxicity assay, APC02; details: Homo sapiens, 72 h of incubation
Experimental: as §1, §2

SCC25 = experiment: alamarBlue cytotoxicity assay, SCC25; details: Homo sapiens, SCC-25, 72 h of incubation
Experimental: as §1, §2

SCC9 = experiment: alamarBlue cytotoxicity assay, SCC9; details: Homo sapiens, SCC-9, 72 h of incubation
Experimental: as §3, §4

HaCat = experiment: alamarBlue cytotoxicity assay, HaCat; details: Homo sapiens, 72 h of incubation
Experimental: as §1, §2

AGP01 = experiment: alamarBlue cytotoxicity assay, AGP01; details: Homo sapiens, 72 h of incubation
Experimental: as §1, §2

HT-29 = experiment: alamarBlue cytotoxicity assay, HT-29; details: Homo sapiens; HT-29, alamarBlue, 72 h of incubation
Experimental: as §1, §2

COc1cccc2c1C(=O)c1c(O)c3c(c(O)c1C2=O)C[C@@](O)(C(=O)CO)C[C@@H]3O[C@H]1C[C@H](N)[C@H](O)[C@H](C)O1 [Doxorubicin]
IC50 (HL60): 10 nM
IC50 (HepG2): 10 nM
IC50 (SCC15): 1500 nM
IC50 (HCT-116): 200 nM
IC50 (PBMC): 5.2 µM
IC50 (K562): 50 nM
IC50 (HSC3): 340 nM
IC50 (SCC4): 70 nM
IC50 (APC03): 2300 nM
IC50 (CAL27): 3.09 µM
IC50 (APC02): 6.8 µM
IC50 (SCC25): 1400 nM
IC50 (SCC9): 800 nM
IC50 (HaCat): 100 nM
IC50 (AGP01): 1890 nM
IC50 (HT-29): 300 nM
